{
  "source": "patent US20240180914A1",
  "about": "“ORAL GEL COMPOSITION AND USE THEREOF” (DR. KURT WOLFF GMBH & CO. KG, priority 2021, published 2024)",
  "key": {"[1]": {"test_system": "human epidermal HaCaT keratinocytes", "experiment": "fluorometric CyQUANT cell proliferation study (DNA content)", "format": "cell-based", "settings": "0.00005, 0.0005, 0.005% caffeine; 24, 48 or 72 hours; best effects after 72 hours", "experimental": "To investigate the effect of caffeine on cell proliferation of human epidermal HaCaT keratinocytes, human HaCaT keratinocytes were subjected to a CyQUANT viability assay, wherein the following series of experiments were performed: • 1. P22 Experiment 1 (biological assay 1) • 2. P24 Experiment 2 (biological assay 2).\nThe trial durations were 24, 48 or 72 hours.\nThe study was carried out by fluorometric CyQUANT study, wherein the DNA content was measured, reflecting cell proliferation."}, "VEGF [2]": {"test_system": "VEGF", "experiment": "Q-PCR, VEGF mRNA expression in HaCaT cell lysates", "format": "cell-based, human", "settings": "all caffeine concentrations; 24 hours; Experiments 1 and 2", "experimental": "(§1) For Q-PCR: Determination of VEGF, HGF and EGF mRNA expression in cell lysates • 2. For ELISA: Determination of VEGF, HGF and EGF protein synthesis/secretion into the culture medium\n(§2) The initial cell count was • 1. for Q-PCR: 140,000 cells/well in 1500 μl culture medium • 2. for ELISA: 140,000 cells/well in 1.500 μl culture medium.\n(§3) The trial duration for • 1. Q-PCR was 24 hours (single treatment at time 0 h) • 2. ELISA was 48 hours (double treatment at time 0 h and 24 h without changing the medium).\n(§4) The study was carried out • 1. for Q-PCR by determining VEGF mRNA expression in cell lysates • 2. for ELISA by determining VEGF protein synthesis/secretion in the culture medium."}, "VEGF [3]": {"test_system": "VEGF", "experiment": "ELISA, VEGF protein synthesis/secretion into the culture medium of HaCaT", "format": "cell-based, human", "settings": "48 hours", "experimental": "as §1, §2, §3, §4"}, "GM-CSF [4]": {"test_system": "GM-CSF", "experiment": "Q-PCR, experiments regarding GM-CSF in HaCaT", "format": "cell-based, human", "settings": "all tested caffeine concentrations; 24 h; Experiments 1 and 2", "experimental": "as §1, §2, §3"}, "GM-CSF [5]": {"test_system": "GM-CSF", "experiment": "ELISA, experiments regarding GM-CSF in HaCaT", "format": "cell-based, human", "settings": "48 h", "experimental": "as §1, §2, §3"}, "TGFβ1 [6]": {"test_system": "TGFβ1", "experiment": "Q-PCR, TGFβ1 mRNA expression in HaCaT", "format": "cell-based, human", "settings": "all tested caffeine concentrations; 24 h; Experiments 1 and 2"}, "TGFβ2": {"test_system": "TGFβ2", "experiment": "Q-PCR, TGFβ2 mRNA expression in HaCaT", "format": "cell-based, human"}, "TGFβ1 [7]": {"test_system": "TGFβ1", "experiment": "ELISA, TGFβ1-specific protein in HaCaT", "format": "cell-based, human", "settings": "48 h; both experiments"}, "HGF [8]": {"test_system": "HGF", "experiment": "Q-PCR, HGF mRNA expression in HaCaT cell lysates", "format": "cell-based, human", "settings": "both experiments", "experimental": "as §1, §2, §3"}, "HGF [9]": {"test_system": "HGF", "experiment": "ELISA, HGF protein synthesis/secretion in HaCaT", "format": "cell-based, human", "settings": "both experiments", "experimental": "as §1, §2, §3"}, "TNFα [10]": {"test_system": "TNFα", "experiment": "Q-PCR, TNFα-specific mRNA in HaCaT", "format": "cell-based, human", "settings": "both experiments"}, "TNFα [11]": {"test_system": "TNFα", "experiment": "ELISA, TNFα-specific protein in HaCaT", "format": "cell-based, human", "settings": "both experiments"}, "[12]": {"test_system": "human epidermal HaCaT keratinocytes", "experiment": "colourimetric MTT viability study", "quoted_text": "To investigate the effect of caffeine on the biological functions of human epidermal HaCaT keratinocytes, cell experiments were performed on human epidermal HaCaT keratinocytes, wherein the following studies were carried out: • 1. P13-A biological assay 1 with two independent studies • 2. P13-B biological assay 2 with two independent studies.\nThe initial cell count was 5000 cells/well in 100 μl culture medium.\nThe culture medium was HaCaT medium (DMEM with the addition of 10% FBS, 1% penicillin-streptomycin, 0.5% fungizone).\nThe treatment groups were as follows: • 1. Control group (CTRL) • 2. 0.00005% caffeine • 3. 0.0001% caffeine • 4. 0.0005% caffeine • 5. 0.001% caffeine • 6. 0.005% caffeine\nThe trial durations were 24, 48 and 72 hours.\nThe study took the form of a colourimetric MTT study."}, "[13]": {"settings": "0.0005% caffeine, both experiments"}},
  "data": [
    {"compound": "Cn1c(=O)c2c(ncn2C)n(C)c1=O", "note": "[caffeine]", "values": [
      {"measurement": "cell proliferation (DNA content)", "setting": "[1]", "value": "appears to promote cell proliferation"},
      {"measurement": "mRNA expression of VEGF compared to the control group", "setting": "VEGF [2]", "value": "appear to increase mRNA expression of VEGF"},
      {"measurement": "VEGF protein production/secretion compared to the control group", "setting": "VEGF [3]; [13]", "value": "increases VEGF protein production/secretion"},
      {"measurement": "VEGF protein production/secretion compared to the control group", "setting": "VEGF [3]; 0.005% caffeine, Experiment 2", "value": "also showed an effect"},
      {"measurement": "mRNA expression of VEGF compared to the control group (under experiments regarding GM-CSF)", "setting": "GM-CSF [4]", "value": "apparently increased the mRNA expression of VEGF"},
      {"measurement": "VEGF protein production/secretion compared to the control group (under experiments regarding GM-CSF)", "setting": "GM-CSF [5]; 0j.005% caffeine, Experiment 2", "value": "also showed an effect"},
      {"measurement": "VEGF protein production/secretion compared to the control group (under experiments regarding GM-CSF)", "setting": "GM-CSF [5]; [13]", "value": "increased VEGF protein production/secretion"},
      {"measurement": "mRNA expression of TGFβ1", "setting": "TGFβ1 [6]", "value": "None of the tested caffeine concentrations changed the mRNA expression of TGFβ1"},
      {"measurement": "mRNA expression of TGFβ2", "setting": "TGFβ2; certain caffeine concentrations, 24 h, Experiment 2", "value": "apparently increase mRNA expression of TGFβ2"},
      {"measurement": "synthesis/production/secretion of TGFβ2 (overall conclusion)", "setting": "TGFβ2; despite contradictory results in the two Q-PCR experiments", "value": "most likely does not alter"},
      {"measurement": "level of TGFβ1-specific protein", "setting": "TGFβ1 [7]", "value": "below the detection limit"},
      {"measurement": "expression of HGF-specific mRNA", "setting": "HGF [8]", "value": "below the detection limit"},
      {"measurement": "expression of HGF-specific protein", "setting": "HGF [9]", "value": "below the detection limit"},
      {"measurement": "expression of TNFα-specific mRNA", "setting": "TNFα [10]", "value": "below the detection limit"},
      {"measurement": "expression of TNFα-specific protein", "setting": "TNFα [11]", "value": "below the detection limit"},
      {"measurement": "cytotoxicity", "setting": "[12]; 0.00005-0.005% caffeine, 24, 48 and 72 hours", "value": "none of the concentrations tested showed cytotoxicity"},
      {"measurement": "number of viable cells", "setting": "[12]; certain concentrations of caffeine", "value": "increased the number of viable cells"}
    ]}
  ]
}
